The record followed here is patent publication US9273058B2 (BRISTOL-MYERS SQUIBB COMPANY, priority 2013, dated 2016).

Like-named read-outs stand apart in the source and are kept apart here.

For test [1], the target named is CK1ε (Homo sapiens, UniProt P49674). The experiment in a line: CK1ε kinase assay (Caliper LabChip electrophoretic separation of fluoresceinated peptide substrate and product). The class given is biochemical. To be noted: 200 pM CK1ε, 50 μM ATP, 1.5 μM peptide, 22 hours at room temperature. The gist of the method: (§1)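 Compounds, taken from 10 mM DMSO stocks, are titrated at eleven concentrations. Kinase reactions proceed for 22 hours at room temperature and are quenched with EDTA. Substrate and product are resolved electrophoretically, and IC50 values are fitted by non-linear regression.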
Chain of CK1ε (P49674 whole entry): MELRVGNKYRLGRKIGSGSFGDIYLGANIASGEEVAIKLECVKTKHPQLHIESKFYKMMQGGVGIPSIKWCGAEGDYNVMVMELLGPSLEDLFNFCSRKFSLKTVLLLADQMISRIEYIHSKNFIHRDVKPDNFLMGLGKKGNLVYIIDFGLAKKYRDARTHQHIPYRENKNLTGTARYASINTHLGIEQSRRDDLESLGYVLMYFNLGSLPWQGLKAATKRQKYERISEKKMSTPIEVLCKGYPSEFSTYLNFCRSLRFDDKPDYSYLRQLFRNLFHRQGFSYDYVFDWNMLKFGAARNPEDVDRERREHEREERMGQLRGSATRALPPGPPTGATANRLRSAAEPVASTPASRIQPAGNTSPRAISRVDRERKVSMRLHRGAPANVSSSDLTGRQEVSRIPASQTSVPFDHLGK

Test [2] has as its target CK1δ (Homo sapiens, UniProt P48730). As to the kind of experiment: CK1δ kinase assay (Caliper LabChip electrophoretic separation of fluoresceinated peptide substrate and product). In kind it is biochemical. To be noted: 200 pM CK1δ, 50 μM ATP, 1.5 μM peptide, 22 hours at room temperature. The gist of the method: as §1

Chain of CK1δ (P48730 whole entry): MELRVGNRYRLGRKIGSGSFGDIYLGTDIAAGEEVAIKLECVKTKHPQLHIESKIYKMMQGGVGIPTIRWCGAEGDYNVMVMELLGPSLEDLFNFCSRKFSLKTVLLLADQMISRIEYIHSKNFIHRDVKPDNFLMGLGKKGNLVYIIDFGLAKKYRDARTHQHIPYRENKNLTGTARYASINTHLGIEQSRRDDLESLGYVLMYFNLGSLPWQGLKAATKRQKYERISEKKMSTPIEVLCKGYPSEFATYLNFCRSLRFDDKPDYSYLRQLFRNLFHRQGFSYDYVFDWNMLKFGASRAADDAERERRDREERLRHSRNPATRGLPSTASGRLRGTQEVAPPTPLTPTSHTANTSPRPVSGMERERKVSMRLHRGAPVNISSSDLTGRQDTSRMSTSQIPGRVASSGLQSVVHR

With `NC(=O)c1c(-c2cccc(F)c2)nn2c1CN(C(=O)Nc1cc(F)cc(F)c1F)CC2` [Compound 27, 2-(3-Fluorophenyl)-N^5-(2,3,5-trifluorophenyl)-6,7-dihydropyrazolo[1,5-a]pyrazine-3,5(4H)-dicarboxamide], the IC50 in test [1] (read-out: CK1ε IC50 range) and in test [2] (read-out: CK1δ IC50 range) was 10 to 100 nM throughout.
Take `NC(=O)c1c(-c2cccc(Cl)c2)nn2c1CN(C(=O)N[C@H]1C[C@@H](c3ccc(F)cc3)C1)CC2` [Compound 277, 2-(3-Chlorophenyl)-N^5-((1s,3s)-3-(4-fluorophenyl)cyclobutyl)-6,7-dihydropyrazolo[1,5-a] pyrazine-3,5(4H)-dicarboxamide]: the IC50 in test [1] (read-out: CK1ε IC50 range) and in test [2] (read-out: CK1δ IC50 range) was 0.01 to 10 nM each time.
In the case of `N#Cc1ccc(NC(=O)N2CCn3nc(-c4cccc(F)c4)c(C(N)=O)c3C2)cc1` [Compound 61, N^5-(4-Cyanophenyl)-2-(3-fluorophenyl)-6,7-dihydropyrazolo[1,5-a]pyrazine-3,5(4H)-dicarboxamide], the IC50 in test [1] (read-out: CK1ε) was 5 nM; in test [1] (read-out: CK1ε IC50 range) it was 0.01 to 10 nM; in test [2] (read-out: CK1δ), 2.6 nM; in test [2] (read-out: CK1δ IC50 range), 0.01 to 10 nM.
Regarding `CC1(F)CC(C)(NC(=O)N2CCn3nc(-c4ccc(F)c(Cl)c4)c(C(N)=O)c3C2)C1` (centres unmarked) [Compound 307, 2-(3-Chloro-4-fluorophenyl)-N^5-(3-fluoro-1,3-dimethylcyclobutyl)-6,7-dihydropyrazolo[1,5-a]pyrazine-3,5(4H)-dicarboxamide], the IC50 in test [1] (read-out: CK1ε IC50 range) and in test [2] (read-out: CK1δ IC50 range) was 0.01 to 10 nM each time.
As to `CS[C@H]1C[C@@H](NC(=O)N2CCn3nc(-c4ccc(Cl)c(Cl)c4)c(C(N)=O)c3C2)C1` [Compound 271, 2-(3,4-Dichlorophenyl)-N^5-((1s,3s)-3-(methylthio)cyclobutyl)-6,7-dihydropyrazolo[1,5-a] pyrazine-3,5(4H)-dicarboxamide], the IC50 in test [1] (read-out: CK1ε IC50 range) and in test [2] (read-out: CK1δ IC50 range) was 0.01 to 10 nM each time.
As for `CC(C)C1CN(C(=O)NC(C)(C)C)Cc2c(C(N)=O)c(-c3ccc(F)c(Cl)c3)nn21` (single isomer, unassigned) [Compound A120, N^5-(tert-Butyl)-2-(3-chloro-4-fluorophenyl)-7-isopropyl-6,7-dihydropyrazolo[1,5-a]pyrazine-3,5(4H)-dicarboxamide], the IC50 in test [1] (read-out: CK1ε IC50 range) and in test [2] (read-out: CK1δ IC50 range) was 0.01 to 10 nM each time.
In the case of `CC(C)(C)NC(=O)N1Cc2c(C(N)=O)c(-c3ccc(F)c(Cl)c3)nn2C(CCO)C1` (single isomer, unassigned) [Compound A96, N^5-(tert-Butyl)-2-(3-chloro-4-fluorophenyl)-7-(2-hydroxyethyl)-6,7-dihydropyrazolo[1,5-a]pyrazine-3,5(4H)-dicarboxamide], the IC50 in test [1] (read-out: CK1ε IC50 range) and in test [2] (read-out: CK1δ IC50 range) was 0.01 to 10 nM each time.
Take `NC(=O)c1c(-c2ccc(F)c(Cl)c2)nn2c1CN(C(=O)N[C@H]1C[C@H](OC(F)(F)F)C1)CC2` [Compound 264, 2-(3-Chloro-4-fluorophenyl)-N^5-((1r,3r)-3-(trifluoromethoxy)cyclobutyl)-6,7-dihydropyrazolo[1,5-a]pyrazine-3,5(4H)-dicarboxamide]: the IC50 in test [1] (read-out: CK1ε IC50 range) and in test [2] (read-out: CK1δ IC50 range) was 0.01 to 10 nM each time.
Consider `CC(CF)(CF)NC(=O)N1CCn2nc(-c3ccc(F)c(Cl)c3)c(C(N)=O)c2C1` [Compound 209, 2-(3-Chloro-4-fluorophenyl)-N^5-(1,3-difluoro-2-methylpropan-2-yl)-6,7-dihydropyrazolo[1,5-a]pyrazine-3,5(4H)-dicarboxamide], for which the IC50 in test [1] (read-out: CK1ε IC50 range) and in test [2] (read-out: CK1δ IC50 range) was 0.01 to 10 nM each time.
Take `NC(=O)c1c(-c2cccc(F)c2)nn2c1CN(C(=O)Nc1c(Cl)cccc1C(F)(F)F)CC2` [Compound 65, N^5-(2-Chloro-6-(trifluoromethyl)phenyl)-2-(3-fluorophenyl)-6,7-dihydropyrazolo[1,5-a]pyrazine-3,5(4H)-dicarboxamide]: the IC50 in test [1] (read-out: CK1ε IC50 range) and in test [2] (read-out: CK1δ IC50 range) was 100 to 2000 nM in each case.
Consider `CC(C)(C)NC(=O)N1CCn2nc(-c3ccc4cc[nH]c4c3)c(C(N)=O)c2C1` [Compound 143], for which the IC50 in test [1] (read-out: CK1ε) is 33.3 nM; in test [1] (read-out: CK1ε IC50 range), 10 to 100 nM; in test [2] (read-out: CK1δ) it was 4.2 nM; in test [2] (read-out: CK1δ IC50 range) it was 0.01 to 10 nM.
On to `NC(=O)c1c(-c2ccc(Cl)c(Cl)c2)nn2c1CN(C(=O)NC1CC(F)(F)C1)C[C@H]2CF` [Compound A29, (S)-2-(3,4-dichlorophenyl)-N^5-(3,3-difluorocyclobutyl)-7-(fluoromethyl)-6,7-dihydropyrazolo[1,5-a] pyrazine-3,5(4H)-dicarboxamide], for which the IC50 in test [1] (read-out: CK1ε IC50 range) and in test [2] (read-out: CK1δ IC50 range) was 0.01 to 10 nM throughout.
In the case of `CC1(NC(=O)N2CCn3nc(-c4ccc(Cl)c(Cl)c4)c(C(N)=O)c3C2)CC2(CC2)C1` [Compound 319, 2-(3,4-Dichlorophenyl)-N^5-(5-methylspiro[2.3]hexan-5-yl)-6,7-dihydropyrazolo[1,5-a]pyrazine-3,5(4H)-dicarboxamide], the IC50 in test [1] (read-out: CK1ε IC50 range) and in test [2] (read-out: CK1δ IC50 range) was 0.01 to 10 nM in each case.
Turning to `NC(=O)c1c(-c2ccc(F)c(Cl)c2)nn2c1CN(C(=O)NC13CCC(CO)(CC1)CC3)CC2` [Compound A55, 2-(3-Chloro-4-fluorophenyl)-N^5-(4-(hydroxymethyl)bicyclo[2.2.2]octan-1-yl)-6,7-dihydropyrazolo[1,5-a]pyrazine-3,5(4H)-dicarboxamide], the IC50 in test [1] (read-out: CK1ε IC50 range) and in test [2] (read-out: CK1δ IC50 range) was 0.01 to 10 nM in each case.
For the compound `NC(=O)c1c(-c2ccc(Cl)c(Cl)c2)nn2c1CN(C(=O)N[C@H]1C[C@@H](OC(F)(F)F)C1)CC2` [Compound 263, 2-(3,4-Dichlorophenyl)-N^5-((1r,3r)-3-(trifluoromethoxy)cyclobutyl)-6,7-dihydropyrazolo[1,5-a] pyrazine-3,5(4H)-dicarboxamide], the IC50 in test [1] (read-out: CK1ε IC50 range) and in test [2] (read-out: CK1δ IC50 range) was 0.01 to 10 nM each time.
Regarding “2-(3-Chloro-4-fluorophenyl)-N^5-(3,3-difluorocyclopentyl)-6,7-dihydropyrazolo[1,5-a]pyrazine-3,5(4H)-dicarboxamide [Compound 332]”, the IC50 in test [1] (read-out: CK1ε IC50 range) and in test [2] (read-out: CK1δ IC50 range) was 0.01 to 10 nM each time.
In the case of `NC(=O)c1c(-c2cccc(Cl)c2)nn2c1CN(C(=O)Nc1ccc(OC(F)(F)F)cc1)CC2` [Compound 162, 2-(3-Chlorophenyl)-N^5-(4-(trifluoromethoxy)phenyl)-6,7-dihydropyrazolo[1,5-a]pyrazine-3,5(4H)-dicarboxamide], the IC50 in test [1] (read-out: CK1ε IC50 range) and in test [2] (read-out: CK1δ IC50 range) was 0.01 to 10 nM throughout.
As to `CC(C)(C)NC(=O)N1Cc2c(C(N)=O)c(-c3ccc(Cl)c(Cl)c3)nn2C(C(C)(C)O)C1` (centres unmarked) [Compound A38, N^5-(tert-Butyl)-2-(3,4-dichlorophenyl)-7-(2-hydroxypropan-2-yl)-6,7-dihydropyrazolo[1,5-a]pyrazine-3,5(4H)-dicarboxamide], the IC50 in test [1] (read-out: CK1ε IC50 range) and in test [2] (read-out: CK1δ IC50 range) was 0.01 to 10 nM each time.
For the compound `CC1(NC(=O)N2Cc3c(C(N)=O)c(-c4ccc(Cl)c(Cl)c4)nn3C(CF)C2)CC(F)(F)C1` (centres unmarked) [Compound A27, 2-(3,4-Dichlorophenyl)-N^5-(3,3-difluoro-1-methylcyclobutyl)-7-(fluoromethyl)-6,7-dihydropyrazolo[1,5-a]pyrazine-3,5(4H)-dicarboxamide], the IC50 in test [1] (read-out: CK1ε IC50 range) and in test [2] (read-out: CK1δ IC50 range) was 0.01 to 10 nM each time.
In the case of `NC(=O)c1c(-c2cccc(F)c2)nn2c1CN(C(=O)NC(CF)(CF)CF)CC2` [Compound A95, N^5-(1,3-Difluoro-2-(fluoromethyl)propan-2-yl)-2-(3-fluorophenyl)-6,7-dihydropyrazolo[1,5-a]pyrazine-3,5(4H)-dicarboxamide], the IC50 was 10 to 100 nM in test [1] (read-out: CK1ε IC50 range) and 0.01 to 10 nM in test [2] (read-out: CK1δ IC50 range).
With `C[C@]1(NC(=O)N2CCn3nc(-c4ccc(F)c(Cl)c4)c(C(N)=O)c3C2)C[C@H](F)C1` [Compound 275, 2-(3-Chloro-4-fluorophenyl)-N^5-((1r,3r)-3-fluoro-1-methylcyclobutyl)-6,7-dihydropyrazolo[1,5-a]pyrazine-3,5(4H)-dicarboxamide], the IC50 in test [1] (read-out: CK1ε IC50 range) and in test [2] (read-out: CK1δ IC50 range) was 0.01 to 10 nM throughout.
Turning to `CC12CC3(C)CC(C)(C1)CC(NC(=O)N1CCn4nc(-c5cccc(Cl)c5)c(C(N)=O)c4C1)(C2)C3` [Compound A85, 2-(3-Chlorophenyl)-N^5-((3s,5s,7s)-3,5,7-trimethyladamantan-1-yl)-6,7-dihydropyrazolo[1,5-a]pyrazine-3,5(4H)-dicarboxamide], the IC50 in test [1] (read-out: CK1ε IC50 range) and in test [2] (read-out: CK1δ IC50 range) was 0.01 to 10 nM throughout.
For the compound `NC(=O)c1c(-c2cccc(Cl)c2)nn2c1CN(C(=O)NCC1CCC(F)(F)CC1)CC2` [Compound 180, 2-(3-Chlorophenyl)-N^5-((4,4-difluorocyclohexyl)methyl)-6,7-dihydropyrazolo[1,5-a]pyrazine-3,5(4H)-dicarboxamide], the IC50 in test [1] (read-out: CK1ε IC50 range) and in test [2] (read-out: CK1δ IC50 range) was 0.01 to 10 nM throughout.
Take `CC(C)(C)NC(=O)N1Cc2c(C(N)=O)c(-c3cccc(Cl)c3)nn2C2(CC2)C1` [Compound A129, N^5-(tert-Butyl)-2′-(3-chlorophenyl)-4′H-spiro[cyclopropane-1,7′-pyrazolo[1,5-a]pyrazine]-3′,5′(6′H)-dicarboxamide]: the IC50 in test [1] (read-out: CK1ε IC50 range) and in test [2] (read-out: CK1δ IC50 range) was 0.01 to 10 nM throughout.
`CC(C)(C)NC(=O)N1CCn2nc(-c3cc4ccccc4nc3Cl)c(C(N)=O)c2C1` [Compound 140, N^5-(tert-Butyl)-2-(2-chloroquinolin-3-yl)-6,7-dihydropyrazolo[1,5-a] pyrazine-3,5(4H)-dicarboxamide]: the IC50 in test [1] (read-out: CK1ε IC50 range) and in test [2] (read-out: CK1δ IC50 range) was 100 to 2000 nM throughout.
For `CC(C)(C)NC(=O)N1Cc2c(C(N)=O)c(-c3ccc(F)c(Cl)c3)nn2C(CCF)C1` (single isomer, unassigned) [Compound A103, N^5-(tert-Butyl)-2-(3-chloro-4-fluorophenyl)-7-(2-fluoroethyl)-6,7-dihydropyrazolo[1,5-a]pyrazine-3,5(4H)-dicarboxamide], the IC50 in test [1] (read-out: CK1ε IC50 range) and in test [2] (read-out: CK1δ IC50 range) was 0.01 to 10 nM in each case.
